Source: patent US6476062B2, “Chemokine receptor antagonists” (Schering Corporation, priority 2000, dated 2002)

Molecular target: T1, human CCR5 chemokine receptor (Homo sapiens, UniProt P51681)
T1 construct: expressed in transfected cells; host or cells: NIH 3T3 cells (mouse fibroblasts) expressing human CCR5; membranes prepared from them
Assay: CCR5 membrane binding assay (inhibition of 125I-RANTES binding)
Conditions: membranes from NIH 3T3 cells expressing human CCR5; 0.05 nM 125I Rantes; one hour; replicates of four; read-out: IC50, 50 percent inhibition of total membrane binding of 125I Rantes
Description: A high throughput screen utilizing a CCR5 membrane binding assay identifies inhibitors of RANTES binding. This assay utilizes membranes prepared from NIH 3T3 cells expressing the human CCR5 chemokine receptor which have the ability to bind to RANTES, a natural ligand for the receptor. Using a 96-well plate format, membrane preparations are incubated with ^125I-RANTES in the presence or absence of compound for one hour. Compounds are serially diluted over a wide range of 0.001 ug/ml to 1 ug/ml and tested in triplicates. Reaction cocktails are harvested through glass fiber filters, and washed thoroughly. Total counts for replicates are averaged and data reported as the concentration required to inhibit 50 percent of total ^125I-RANTES binding. Compounds with potent activity in the membrane binding assay are further characterized in secondary cell-based HIV-1 entry and replication assays.
The activity of the compound of formula II was evaluated in the CCR5 membrane binding assay. The assay utilizes membranes prepared from NIH 3T3 cells which express human CCR5 chemokine receptor. RANTES (Regulated upon Activation, Normal T cell Expressed and Secreted) is a natural ligand for the CCR5. […] Total counts for replicates are averaged and 50 percent inhibition of total membrane binding of ^125I Rantes is determined.

T1 sequence (P51681 whole entry): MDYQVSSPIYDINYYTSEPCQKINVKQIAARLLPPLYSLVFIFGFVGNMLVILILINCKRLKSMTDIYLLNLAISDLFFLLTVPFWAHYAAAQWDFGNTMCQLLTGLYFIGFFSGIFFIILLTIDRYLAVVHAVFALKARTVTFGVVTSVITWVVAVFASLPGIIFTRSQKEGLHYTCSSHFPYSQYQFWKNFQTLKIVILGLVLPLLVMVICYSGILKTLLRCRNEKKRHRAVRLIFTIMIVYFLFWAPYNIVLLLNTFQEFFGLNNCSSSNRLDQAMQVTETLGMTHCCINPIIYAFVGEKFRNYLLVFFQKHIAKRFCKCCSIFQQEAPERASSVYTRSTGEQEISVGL

## C/C=C(\C)[C@@H]1C=C[C@@H]2C[C@H](C)C[C@H](C)[C@H]2[C@@H]1/C(O)=C1/C(=O)N[C@H](C[C@@](C)(O)C(=O)O)C1=O [Compound II]
  IC50: 78.6 nM
